Measured values as given in US12303509B2, “Compounds for the treatment of BRAF-associated diseases and disorders” (Pfizer Inc., priority 2020, dated 2025).

Experiments:
[1] = biological target: full-length FLAG-tagged B-Raf(V600E) (Homo sapiens (Human), UniProt P15056, V600E); test: BRAF V600E enzyme assay (TR-FRET competitive displacement); format: binding; conditions: averaged IC50; TR-FRET tracer displacement, 60 min
Method in brief: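 Displacement of 50 nM Tracer 1710 from 5 nM full-length N-terminally FLAG-tagged B-Raf(V600E), detected by TR-FRET with 0.5 nM Eu anti-FLAG antibody, in 25 mM HEPES pH 7.4, 10 mM MgCl2, 2% DMSO; 60 min at ~22 °C. Compounds 11-point, 3-fold from 10 μM; IC50 from 4-parameter fit at 50 POC.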

BCRP = BCRP (Homo sapiens (Human), UniProt Q9UNQ0); test: BCRP MDCKII permeability assay: efflux ratio; format: in vitro ADME; conditions: dog
BCRP, sequence (Q9UNQ0 whole entry): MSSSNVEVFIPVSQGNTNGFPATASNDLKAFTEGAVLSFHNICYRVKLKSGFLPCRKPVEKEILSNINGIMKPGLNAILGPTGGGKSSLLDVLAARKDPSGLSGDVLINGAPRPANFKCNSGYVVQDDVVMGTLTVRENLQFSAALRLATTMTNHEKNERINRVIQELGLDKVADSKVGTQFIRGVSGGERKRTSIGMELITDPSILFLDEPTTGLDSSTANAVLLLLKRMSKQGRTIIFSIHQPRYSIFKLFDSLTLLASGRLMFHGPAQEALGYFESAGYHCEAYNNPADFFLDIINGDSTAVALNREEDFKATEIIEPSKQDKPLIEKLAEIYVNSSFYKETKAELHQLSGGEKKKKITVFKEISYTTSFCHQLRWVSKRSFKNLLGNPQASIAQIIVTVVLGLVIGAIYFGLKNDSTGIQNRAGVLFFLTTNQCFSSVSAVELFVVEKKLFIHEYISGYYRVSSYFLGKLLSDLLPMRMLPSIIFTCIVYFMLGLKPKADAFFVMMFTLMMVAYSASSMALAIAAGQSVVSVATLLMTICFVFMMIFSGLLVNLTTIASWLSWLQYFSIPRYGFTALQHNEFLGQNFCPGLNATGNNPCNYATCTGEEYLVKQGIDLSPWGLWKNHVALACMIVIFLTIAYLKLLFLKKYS
Method: BCRP transfected MDCKII cells were cultured and plated according to manufacturer's recommendations. Assay conditions included with and without the BCRP-specific inhibitor, KO143, at a concentration of 0.3 μM to ascertain the contribution of BCRP to the efflux value of the test compound.
Both positive and negative controls were used to assess functionality of P-gp or BCRP efflux in the assays. […] Final organic concentration in the assay was 1%. All dosing solutions contained 10 μM lucifer yellow to monitor LLC-PK1 or MDCKII cell monolayer integrity.
For the apical to basolateral determination (A to B), 75 μL of the test article in transport buffer were added to the apical side of the individual transwells and 250 μL of basolateral media, without compound or lucifer yellow, were added to each well. For the basolateral to apical determination (B to A), 250 μL of test article in transport buffer were added to each well and 75 μL transport buffer, without compound or lucifer yellow, were added to each transwell. All tests were performed in triplicate, and each compound was tested for both apical to basolateral and basolateral to apical transport. The plates were incubated for 2 hours on a Lab-Line Instruments Titer Orbital Shaker (VWR, West Chester, PA) at 50 rpm and 37° C. with 5% CO2. All culture plates were removed from the incubator and 50 μL of media were removed from the apical and basolateral portion of each well and added to 150 μL of 1 μM labetalol in 2:1 acetonitrile (acetonitrile): H2O, v/v.
These values were accepted when found to be below 2% for apical to basolateral and 5% basolateral to apical flux across the MDR1-transfected LLC-PK1 or BCRP-transfected MDCKII cell monolayers. The plates were sealed and the contents of each well analyzed by LC-MS/MS. The compound concentrations were determined from the ratio of the peak areas of the compound to the internal standard (labetalol) in comparison to the dosing solution.
The LC-MS/MS system was comprised of an HTS-PAL autosampler (Leap Technologies, Carrboro, NC), an HP1200 HPLC (Agilent, Palo Alto, CA), and a MDS Sciex 4000 Q Trap system (Applied Biosystems, Foster City, CA). […] The total run time, including re-equilibration, for a single injection was 1.2 minutes. Mass spectrometric detection of the analytes was accomplished using the ion spray positive mode.
An efflux ratio is calculated from the mean apical to basolateral (A-B) Papp data and basolateral to apical (B-A) Papp data using the following equation: Efflux ratio=Papp(B-A)/Papp(A-B)

[2] = system: WM3629 cells (BRAF D594G/NRAS G12D); test: Proliferation assay (CellTiter-Glo) in WM3629 cells; format: cell-based; conditions: 3-5 day incubation
Method: (§1) The compounds of Example 13, Example 14 and Example 126 were evaluated in a proliferation assay in two mutant BRAF Class III cell lines: NCI-H1666 (BRAF^G466V) and WM3629 cells (BRAF^D594G/NRAS^G12D). NCI-H1666 cells were obtained from the American Type Culture Collection (ATCC, Rockville, MD) and WM3629 cells were obtained from Rockland Immunochemicals (Limerick, PA). Cells were maintained in RPMI growth medium containing 10% FBS.
(§2) Cells were harvested according to standard protocols, counted, and plated onto flat-bottom, 96-well tissue culture plates (Costar #3599) at 2000-5000 cells/well in 100 μL/well of growth medium containing 10% FBS. Cells were incubated at 37° C. with 5% CO2 overnight then treated with inhibitors prepared as a 9-point, 1:3.33 fold dilution series with final compound concentrations ranging from 66 pM-10 μM and a constant DMSO concentration of 0.25%. Control wells contained 0.25% DMSO alone. After a 3-5 day incubation at 37° C., 5% CO2, cell viability was determined by adding 100 μL CellTiter-Glo® Reagent (Promega) to each well and incubated for 15 minutes at room temperature. “Day 0” controls were determined by performing CellTiter-Glo© assay on DMSO control wells at the time of compound treatment (“Day 0” control=0 POC). Luminescence was measured on a Cytation 5 plate reader (BioTek) and values were converted to POC using the following equation:
(§3) [formula] • Where: • Xmax Average DMSO Controls • Xmin Average “Day 0” DMSO Controls • IC50 values were calculated using a 4-parameter fit in XLfit software and are shown in Table A2.

[3] = system: WM3629 cells (BRAF D594G/NRAS G12D); test: Cellular phospho-ERK inhibition assay in WM3629 cells; format: cell-based; conditions: 1 hour treatment, read-out: IC50 WM3629 pERK
Method: as §1, with “phospho-ERK” for “proliferation”
(§4) Cells were harvested according to standard protocols, counted, and plated onto flat-bottom, 96-well tissue culture plates (Costar #3599) at 2.5×10^4 cells/well in 100 μL/well of growth medium containing 10% FBS. After an overnight incubation at 37° C. with 5% CO2 cells were treated for 1 hour at 37° C., 5% CO2 with inhibitors prepared as a 9-point, 1:3.33 fold dilution series with final compound concentrations ranging from 66 pM-10 μM and a constant DMSO concentration of 0.25%. Control wells contained either 0.25% DMSO alone (uninhibited control) or 10 μM binimetinib (complete inhibition control). The levels of phosphorylated ERK were determined using an In Cell Western protocol: following compound incubation, growth medium was discarded, and cells were fixed with 0.4% formaldehyde in PBS for 20 minutes at room temperature. Cells were permeabilized with 100% methanol for 10 minutes at room temperature. Plates were washed with PBS containing 0.05% Tween-20 and blocked for 1 hour at room temperature with LI-COR Blocking Buffer (LI-COR Biosciences; Cat. #927-40000). Plates were then incubated for 2 hours at room temperature with 50 μL of a 1:400 dilution of anti-phospho-ERK1/2 (Thr202/Tyr204) (Cell Signaling; Cat. #9101) and a 1:1000 dilution of anti-GAPDH (Millipore; Cat. #MAB374) in LI-COR blocking buffer containing 0.05% Tween-20. […] Plates were analyzed by reading on an Odyssey CLx infrared scanner. […]
(§5) [formula] • Where: • Xmax d Average Uninhibited Controls • Xmin Average Complete Inhibition Controls • IC50 values were then calculated using a 4-parameter fit in XLfit software and are shown in Table A2.

[4] = system: NCI-H1666 (BRAF G466V) cells; test: Cellular phospho-ERK inhibition assay in NCI-H1666 cells; format: cell-based; conditions: Homo sapiens, 1 hour treatment, read-out: IC50 NCI-H1666 pERK
Method: as §1, with “phospho-ERK” for “proliferation”
as §4, §5

[5] = system: NCI-H1666 (BRAF G466V) cells; test: Proliferation assay (CellTiter-Glo) in NCI-H1666 cells; format: cell-based; conditions: Homo sapiens, 3-5 day incubation
Method: as §1, §2, §3

full-length FLAG-tagged B-Raf(V600E), sequence (P15056 whole entry V600E): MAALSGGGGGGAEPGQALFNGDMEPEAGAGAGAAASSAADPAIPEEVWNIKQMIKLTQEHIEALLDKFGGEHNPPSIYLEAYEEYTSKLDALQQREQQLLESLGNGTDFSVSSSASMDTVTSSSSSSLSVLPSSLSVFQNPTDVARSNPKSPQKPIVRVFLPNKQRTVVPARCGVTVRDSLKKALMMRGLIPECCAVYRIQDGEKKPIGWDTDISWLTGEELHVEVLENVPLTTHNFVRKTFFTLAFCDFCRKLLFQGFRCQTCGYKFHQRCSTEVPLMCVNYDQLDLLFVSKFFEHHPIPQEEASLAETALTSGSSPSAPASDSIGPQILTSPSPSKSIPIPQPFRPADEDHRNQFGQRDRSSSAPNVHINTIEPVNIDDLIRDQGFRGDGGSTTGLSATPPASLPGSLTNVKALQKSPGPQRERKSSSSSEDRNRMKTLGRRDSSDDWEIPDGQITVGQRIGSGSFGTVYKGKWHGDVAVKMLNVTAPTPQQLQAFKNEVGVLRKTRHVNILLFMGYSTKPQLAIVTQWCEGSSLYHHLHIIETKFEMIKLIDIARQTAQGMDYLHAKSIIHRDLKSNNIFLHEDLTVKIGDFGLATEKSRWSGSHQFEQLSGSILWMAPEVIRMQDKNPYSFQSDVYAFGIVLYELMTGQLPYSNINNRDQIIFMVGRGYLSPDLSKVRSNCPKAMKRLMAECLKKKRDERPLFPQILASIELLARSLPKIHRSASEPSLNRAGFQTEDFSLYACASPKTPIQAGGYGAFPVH

IC50 [1] | efflux ratio at 2 h, 1 µM (BCRP) | IC50 [3] | IC50 [4] | IC50 [5] | Structure (SMILES) | IC50 [2]
6 nM | 1.8 | 0.7 nM | 15 nM | 240 nM | Cn1cnc2ccc(Nc3c(F)ccc(NS(=O)(=O)N4CC5CC4C5)c3Cl)c(F)c2c1=O [Example 13, N-(2-chloro-4-fluoro-3-((5-fluoro-3-methyl-4-oxo-3,4-dihydroquinazolin-6-yl)amino)phenyl)-2-azabicyclo[2.1.1]hexane-2-sulfonamide] | > 10000 nM
5 nM | 5.4 | 0.2 nM | 7.1 nM | 120 nM | Cn1cnc2ccc(Nc3c(F)ccc(NS(=O)(=O)N4CC[C@@H](F)C4)c3Cl)c(F)c2c1=O [Example 14, (R)-N-(2-chloro-4-fluoro-3-((5-fluoro-3-methyl-4-oxo-3,4-dihydroquinazolin-6-yl)amino)phenyl)-3-fluoropyrrolidine-1-sulfonamide] | > 10000 nM
